# Measured values reported in BindingDB's records for doi:10.1016/j.bmc.2010.11.049 (Bryn Mawr College, 2011).
# Experiment: Inhibition of HIV1 YU2 gp120 binding to CD4 expressing Cf2Th-CD4/CCR5 cells assessed as inhibition of viral infection after 48 hrs
row,SMILES,IC50 [µM]
1,O=C(Nc1ccc(Cl)c(F)c1)C(=O)Nc1cccc2[nH]ncc12 [N1-(4-chloro-3-fluorophenyl)-N2-(1H-indazol-4-yl)oxalamide],> 100
2,"CC(NC(=O)C(=O)Nc1ccc(Cl)c(F)c1)c1ccc2c(c1)NC(=O)CO2 (centres undefined) [N1-(4-chloro-3-fluorophenyl)-N2-(1-(3-oxo-3,4-dihydro-2H-benzo[b][1,4]oxazin-6-yl)ethyl)oxalamide]",> 100
3,"CC1(C)CC(NC(=O)C(=O)Nc2ccc(Cl)cc2Cl)CC(C)(C)N1 [N1-(2,4-dichlorophenyl)-N2-(2,2,6,6-tetramethylpiperidin-4-yl)oxalamide]",> 100
4,CN1CCCC(CNC(=O)C(=O)Nc2ccc(Cl)c(F)c2)C1 (centres undefined) [N1-(4-chloro-3-fluorophenyl)-N2-((1-methylpiperidin-3-yl)methyl)oxalamide],> 100
5,"CC1(C)CC(NC(=O)C(=O)Nc2ccc(Cl)cc2C(F)(F)F)CC(C)(C)N1 [N1-(4-chloro-2-(trifluoromethyl)phenyl)-N2-(2,2,6,6-tetramethylpiperidin-4-yl)oxalamide]",> 100
6,"CN1C(C)(C)CC(NC(=O)C(=O)Nc2ccc(Cl)c(F)c2)CC1(C)C [N1-(4-chloro-3-fluorophenyl)-N2-(1,2,2,6,6-pentamethylpiperidin-4-yl)oxalamide]",65.8
7,O=C(Nc1ccc(Br)cc1)c1cc(CN2CCCC2)on1 [N-(4-bromophenyl)-5-(pyrrolidin-1-ylmethyl)isoxazole-3-carboxamide],> 100
8,"O=C(Nc1ccc(Cl)cc1)c1cc2c([nH]c1=O)CCCC2 [N-(4-chlorophenyl)-2-oxo-1,2,5,6,7,8-hexahydroquinoline-3-carboxamide]",> 100
9,"C[C@H](Sc1nc(N)cc(N)n1)C(=O)Nc1ccc(Cl)cc1 [(S)-N-(4-chlorophenyl)-2-(4,6-diaminopyrimidin-2-ylthio)propanamide]",> 100
10,"CCc1n[nH]c(NC(=O)C(=O)Nc2ccc(Cl)c(F)c2)c1CC [N1-(4-chloro-3-fluorophenyl)-N2-(3,4-diethyl-1H-pyrazol-5-yl)oxalamide]",> 100
11,CCN1CCCC1CNC(=O)C(=O)Nc1ccc(Cl)c(F)c1 (centres undefined) [N1-(4-chloro-3-fluorophenyl)-N2-((1-ethylpyrrolidin-2-yl)methyl)oxalamide],85.2
12,"CC(C)c1ccccc1NC(=O)C(=O)NC1CC(C)(C)NC(C)(C)C1 [N1-(2-isopropylphenyl)-N2-(2,2,6,6-tetramethylpiperidin-4-yl)oxalamide]",> 100
13,"O=C(NCC1NCCc2ccccc21)C(=O)Nc1ccc(Cl)c(F)c1 (centres undefined) [N1-(4-chloro-3-fluorophenyl)-N2-((1,2,3,4-tetrahydroisoquinolin-1-yl)methyl)oxalamide]",50.4
14,"CC1(C)CC(=O)c2cc(C(=O)Nc3ccc(Cl)cc3)c(=O)[nH]c2C1 [N-(4-chlorophenyl)-7,7-dimethyl-2,5-dioxo-1,2,5,6,7,8-hexahydroquinoline-3-carboxamide]",> 100
